Measurements from US10409869B2, “(R)- and (S)-1-(3-(3-N,N-dimethylaminocarbonyl)phenoxyl-4-nitrophenyl)-1-ethyl-N,N'-bis (ethylene)phosphoramidate, compositions and methods for their use and preparation” (OBI Pharma, Inc., priority 2015, dated 2019).

Columns and labels:
[1] = system: HepG2-GFP human hepatocellular carcinoma; test: Orthotopic HepG2-GFP human hepatocellular carcinoma mouse model, tumor burden; type: in vivo, nude mice; conditions: at tested dosages
Procedure: Female athymic nude mice (6 weeks of age) were used in this study. The animals were purchased from Beijing HFK Bioscience, Co., Ltd and maintained in a High Efficiency Particulate Air Filter (HEPA) filtered environment with cages, food, and bedding sterilized by irradiation or autoclaving. A total of 32 nude mice were used for the study. HepG2-GFP human hepatocellular carcinoma cells (AntiCancer, Inc., San Diego, Calif.) were incubated with RPMI-1640 (Gibco-BRL, Life Technologies, Inc.), which contained 10% FBS. Cells were grown in a CO2 Water Jacketed Incubator (Forma Scientific) maintaining 37° C. and a 5% CO2/95% air atmosphere. Cell viability was determined by trypan blue exclusion analysis. Five female athymic nude mice were injected subcutaneously with a single dose of 5×10^6 HepG2-GFP cells. Tumors were harvested when their size reached 1 cm^3 and the tumor tissues were then cut into small fragments of 1 mm^3. Forty female nude mice were implanted orthotopically with a single piece of tumor fragment, which was derived from a subcutaneous tumor model of HepG2-GFP human hepatocellular carcinoma. The tumor tissue was orthotopically implanted in the right lobe of the liver in each mouse by SOI (Surgical Orthotopic Implantation). […]
During the period of the study, all of the experimental mice were checked daily for mortality or signs of morbidity. […] The body weights of the mice were measured twice weekly during the study period. […] Comparisons of body weights and tumor burdens in different groups were analyzed using the Student's t-test with an α=0.05 (two-sided). […]
The progressions of orthotopic HepG2-GFP hepatocellular carcinoma in different groups were monitored by real time imaging. […] Typical tumor images at the end of the study in each group and tumor growth curves derived from the signals of tumor fluorescence, which were analyzed using the Power Station software (INDEC Biosystems, CA, USA), are shown in FIG. 6 and FIG. 7, respectively
Tumor IR was calculated based on the final average tumor weights according to the formula: IR (%)=(1−treatment(t)/control(c))×100

[2] = Body weight and toxicity in the orthotopic HepG2-GFP mouse model; type: in vivo, nude mice; conditions: intra-peritoneal, low (2.5 mg/kg) or high (5 mg/kg) dose
[3] = system: AL7473 cells; test: T-cell leukemia animal model, human CD45 FACS; type: in vivo, mouse
Procedure: Leukemic cells were prepared by thawing out ˜150×10^6 of AL7473 cells from LN2 (about 2-3 vials) and placing them into a 37° C. water bath rapidly. All of the cells were transferred into a 50 ml falcon tube with 40 ml pre-warmed complete medium. The cells were centrifuged at 1200 rpm for 5 min. The cells were re-suspended with 40 ml RPMI1640. The cells were then counted. The cells were centrifuged at 1200 rpm for 5 min. and re-suspended with ice cold PBS to 2 million cell per 100 ul PBS. 100 ul of saline containing 2×10^6 cells prepared above were used to inject into each mouse by IV. The FACS analysis was done for blood weekly during the experimental period by transferring samples into FACS tubes, adding human CD45 FITC and isotypes into corresponding tubes for all the samples and incubating the cells on ice for 30 min. in the dark. 2 ml of red blood cell lysing buffer was added to each tube and incubated on ice for another 30 min. in the dark. […] Samples were analyzed on a BD Calibur by using Cell Quest or Flowjo and the results were analyzed by using Prism 5.0. […]
Peripheral blood was collected weekly for human CD45 antibody FACS detected during treatment since the treatment start on Day 43 post cell inoculation. […] Blood, spleen and bone marrow of all mice were collected for human CD45 FACS detected. […]

C[C@H](OP(=O)(N1CC1)N1CC1)c1ccc([N+](=O)[O-])c(Oc2cccc(C(=O)N(C)C)c2)c1 (single isomer, unassigned) [TH3424]
inhibitory effect on orthotopic HepG2-GFP model [1]: very strong inhibitory effect
toxicity to the experimental mice [2]: no obvious toxicity
toxicity to the experimental mice ([2]; listed as TH2870-2): no obvious acute toxicity
percentages of human CD45+ leukemia cells in peripheral blood ([3]; after the second dosing, treatment groups 2-4 vs vehicle group 1, P<0.001): significantly lower than vehicle group
tumor burden (human CD45) in blood, spleen and bone marrow at termination ([3]; groups 2-4 vs group1, P<0.01, bone marrow in group2 P<0.05): significant differences
